Starred links: 1 amine or outer side, 2 acyl side, 3 side chain; linkers in the order of their positions; H or OH if unused. Positions of bridges follow the written chain, without caps; N, C: chain ends. Non-standard residues stand in square brackets, D forms with d. Residues, ends and D or L forms follow the SMILES beside them. *: point of attachment. hPhe(3-Cl-4-CF3) = N[C@@H](CCc1ccc(C(F)(F)F)c(Cl)c1)C(=O)O; NMePhe(4-CF3) = CN[C@@H](Cc1ccc(C(F)(F)F)cc1)C(=O)O; X49 = Cn1ccc2cc(CC[C@H](N[*:1])C(=O)[*:2])ccc21; NMeAla(4-thiazolyl) = CN[C@@H](Cc1cscn1)C(=O)O; 3Oxa8azabicyclo(3.2.1)octane = C1CC2COCC1N2*; NMeAbu(4,4,4-F3) = CN[C@@H](CC(F)(F)F)C(=O)O; NMePhe(3-Br) = CN[C@@H](Cc1cccc(Br)c1)C(=O)O; NMePhe(4-Me) = CN[C@@H](Cc1ccc(C)cc1)C(=O)O; NMeGly(cPent) = CN[C@H](C(=O)O)C1CCCC1; NMeCha = CN[C@@H](CC1CCCCC1)C(=O)O; NMeCba = CN[C@@H](CC1CCC1)C(=O)O; NMeChg = CN[C@H](C(=O)O)C1CCCCC1; NMeI = CC[C@H](C)[C@H](NC)C(=O)O; NMeD = CN[C@@H](CC(=O)O)C(=O)O; NMeL = CN[C@@H](CC(C)C)C(=O)O; NMeNva = CCC[C@H](NC)C(=O)O; NMeV = CN[C@H](C(=O)O)C(C)C; NMeA = CN[C@@H](C)C(=O)O; Piperidide = C1CCN(*)CC1; Pyrrolidide = C1CCN(*)C1; Ac5c = NC1(C(=O)O)CCCC1; Aze = O=C(O)[C@@H]1CCN1; Sar = CNCC(=O)O
Key:
[1] = tested on: Human pancreatic cancer cell line AsPC-1; test: Measurement of AsPC-1 cell growth inhibition (AsPC-1 CGI); type: cell-based; details: 96 h
Outline: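 AsPC-1 cells in 15% FBS RPMI-1640 were exposed to test compound for 96 hours at 37° C, with CellTiter-Glo as endpoint.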

[2] = target: T1, Kras and SOS1 (biotin-tagged human Kras loaded with GDP, His-tagged human SOS1) (Homo sapiens, UniProt P01116, G12D); test: Protein-protein interaction inhibition between Kras and SOS1 (KrasGl2D-SOS PPI) using AlphaScreen; type: binding; details: AlphaScreen; biotin-tagged human Kras loaded with GDP, His-tagged human SOS1; read-out: KRAS G12D-SOS PPI IC50
T1 construct: made in house; host or cells: E. coli (stated for Kras only)
T1 sequence (P01116 1-188 isoform P01116-2 G12D): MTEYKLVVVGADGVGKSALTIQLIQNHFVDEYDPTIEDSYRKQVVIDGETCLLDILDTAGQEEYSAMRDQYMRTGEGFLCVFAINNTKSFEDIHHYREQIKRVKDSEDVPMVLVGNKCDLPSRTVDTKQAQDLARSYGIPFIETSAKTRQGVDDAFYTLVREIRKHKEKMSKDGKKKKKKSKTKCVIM
Outline: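 Read-out is acceptor-bead light at 520-620 nm, arising when 680 nm-irradiated nickel donor beads pass singlet oxygen to streptavidin acceptors. The bead pair links His-tagged SOS1 with biotin-tagged, GDP-bound Kras from E. coli.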

SMILES	IC50 [1] [nM]	IC50 [2] [nM]
CC[C@H](C)[C@@H]1NC(=O)[C@H](CC(C)C)N(C)C(=O)C[C@@H](C(=O)N2CCCCC2)N(C)C(=O)[C@H](C(C)C)N(C)C(=O)C2(CCCC2)NC(=O)[C@@H]2CCCN2C(=O)[C@H](CCc2ccc(C(F)(F)F)c(Cl)c2)NC(=O)CN(C)C(=O)[C@H](Cc2cccc(Br)c2)N(C)C(=O)CN(C)C(=O)CN(C)C1=O [Compound 1643] ([NMeL]I[Sar][Sar][NMePhe(3-Br)][Sar][hPhe(3-Cl-4-CF3)]P[Ac5c][NMeV][NMeD]-Piperidide; lactam N-11)	100 to 500	7.2
CC[C@H](C)[C@@H]1NC(=O)[C@H](CC(C)C)N(C)C(=O)C[C@@H](C(=O)N(C)C)N(C)C(=O)[C@H]([C@@H](C)CC)N(C)C(=O)C2(CCCC2)NC(=O)[C@H](Cc2cscn2)N(C)C(=O)[C@H](CCc2ccc(C(F)(F)F)c(Cl)c2)NC(=O)CN(C)C(=O)[C@H](Cc2ccc(C)cc2)N(C)C(=O)[C@@H]2CCN2C(=O)[C@H](C)N(C)C1=O [Compound 441] ([NMeL]I[NMeA][Aze][NMePhe(4-Me)][Sar][hPhe(3-Cl-4-CF3)][NMeAla(4-thiazolyl)][Ac5c][NMeI][NMeD]-NMe2; lactam N-11)	20 to 50	0.73
CCC[C@H]1C(=O)N[C@@H]([C@@H](C)CC)C(=O)N(C)CC(=O)N(C)CC(=O)N(C)[C@@H](Cc2ccc(C)cc2)C(=O)N(C)CC(=O)N[C@@H](CCc2ccc(C(F)(F)F)c(Cl)c2)C(=O)N2CCC[C@H]2C(=O)NC2(CCCC2)C(=O)N(C)[C@@H](C2CCCCC2)C(=O)N(C)[C@H](C(=O)N2CCCC2)CC(=O)N1C [Compound 2004] ([NMeNva]I[Sar][Sar][NMePhe(4-Me)][Sar][hPhe(3-Cl-4-CF3)]P[Ac5c][NMeChg][NMeD]-Pyrrolidide; lactam N-11)	20 to 50	0.33
CCC[C@H]1C(=O)N[C@@H]([C@@H](C)CC)C(=O)N(C)CC(=O)N(C)CC(=O)N(C)[C@@H](Cc2ccc(C(F)(F)F)cc2)C(=O)N(C)CC(=O)N[C@@H](CCc2ccc(C(F)(F)F)c(Cl)c2)C(=O)N2CCC[C@H]2C(=O)NC2(CCCC2)C(=O)N(C)[C@@H](C2CCCCC2)C(=O)N(C)[C@H](C(=O)N2C3CCC2COC3)CC(=O)N1C [Compound 1983] ([NMeNva]I[Sar][Sar][NMePhe(4-CF3)][Sar][hPhe(3-Cl-4-CF3)]P[Ac5c][NMeChg][NMeD]-{3Oxa8azabicyclo(3.2.1)octane}; lactam N-11)	20 to 50	0.68
CC[C@H](C)[C@@H]1NC(=O)[C@H](CC(F)(F)F)N(C)C(=O)C[C@@H](C(=O)N2C3CCC2COC3)N(C)C(=O)[C@H](C2CCCCC2)N(C)C(=O)C2(CCCC2)NC(=O)[C@@H]2CCCN2C(=O)[C@H](CCc2ccc(C(F)(F)F)c(Cl)c2)NC(=O)CN(C)C(=O)[C@H](Cc2ccc(C(F)(F)F)cc2)N(C)C(=O)CN(C)C(=O)CN(C)C1=O [Compound 173] ([NMeAbu(4,4,4-F3)]I[Sar][Sar][NMePhe(4-CF3)][Sar][hPhe(3-Cl-4-CF3)]P[Ac5c][NMeChg][NMeD]-{3Oxa8azabicyclo(3.2.1)octane}; lactam N-11)	20 to 50	0.56
CC[C@H](C)[C@@H]1NC(=O)[C@H](CC(C)C)N(C)C(=O)C[C@@H](C(=O)N2CCCCC2)N(C)C(=O)[C@H](C2CCCCC2)N(C)C(=O)C2(CCCC2)NC(=O)[C@@H]2CCCN2C(=O)[C@H](CCc2ccc(C(F)(F)F)c(Cl)c2)NC(=O)CN(C)C(=O)[C@H](C2CCCC2)N(C)C(=O)CN(C)C(=O)CN(C)C1=O [Compound 1669] ([NMeL]I[Sar][Sar][NMeGly(cPent)][Sar][hPhe(3-Cl-4-CF3)]P[Ac5c][NMeChg][NMeD]-Piperidide; lactam N-11)	100 to 500	1.8
CC[C@H](C)[C@@H]1NC(=O)[C@H](CC(C)C)N(C)C(=O)C[C@@H](C(=O)N2CCCCC2)N(C)C(=O)[C@H](C2CCCC2)N(C)C(=O)C2(CCCC2)NC(=O)[C@@H]2CCCN2C(=O)[C@H](CCc2ccc3c(ccn3C)c2)NC(=O)CN(C)C(=O)[C@H](CC2CCCCC2)N(C)C(=O)[C@@H]2CCN2C(=O)[C@H](C)N(C)C1=O [Compound 2064] ([NMeL]I[NMeA][Aze][NMeCha][Sar][X49]P[Ac5c][NMeGly(cPent)][NMeD]-Piperidide; lactam N-11)	100 to 500	12
CC[C@H](C)[C@@H]1NC(=O)[C@H](CC2CCC2)N(C)C(=O)C[C@@H](C(=O)N2CCCCC2)N(C)C(=O)[C@H](C(C)C)N(C)C(=O)C2(CCCC2)NC(=O)[C@@H]2CCCN2C(=O)[C@H](CCc2ccc(C(F)(F)F)c(Cl)c2)NC(=O)CN(C)C(=O)[C@H](CC2CCCCC2)N(C)C(=O)CN(C)C(=O)CN(C)C1=O [Compound 911] ([NMeCba]I[Sar][Sar][NMeCha][Sar][hPhe(3-Cl-4-CF3)]P[Ac5c][NMeV][NMeD]-Piperidide; lactam N-11)	100 to 500	4.5

Reference: US12371454B2, “Cyclic peptide compound having Kras inhibitory action” (priority 2019, dated 2025)
